Measurements from paper PMC11819603, “Development of a reliable, sensitive, and convenient assay for the discovery of new eIF5A hypusination inhibitors” (PLOS ONE, 2025).

What was measured:
DHPS [1] = settings: ref 35; read-out: IC50; cited from earlier work
DHPS [2] = target: T1, DHPS (Homo sapiens, UniProt P49366); assay: Hyp'Assay: cell-free eIF5A hypusination in 96-well plates (recombinant eIF5A, DHPS, DOHH; anti-hypusine antibody Hpu24), substance present in the DHPS step; assay type: biochemical; settings: 5 μM spermidine; for hypusination signal, Mean (quantification from Figure 5A): control 98,5
T1 construct: host or cells: E. coli BL21 (DE3)
T1 sequence (P49366 1-369): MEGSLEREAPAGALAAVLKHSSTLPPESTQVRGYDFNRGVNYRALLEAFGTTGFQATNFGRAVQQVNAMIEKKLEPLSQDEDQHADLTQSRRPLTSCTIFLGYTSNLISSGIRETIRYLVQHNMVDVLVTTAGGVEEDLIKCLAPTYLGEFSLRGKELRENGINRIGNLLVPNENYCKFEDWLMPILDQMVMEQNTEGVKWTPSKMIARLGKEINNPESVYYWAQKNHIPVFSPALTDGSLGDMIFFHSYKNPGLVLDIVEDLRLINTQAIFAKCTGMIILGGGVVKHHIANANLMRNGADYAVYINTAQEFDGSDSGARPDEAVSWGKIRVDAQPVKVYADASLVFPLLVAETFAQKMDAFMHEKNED
Method: The principle of the Hyp’Assay (Fig 2A) is to perform eIF5A hypusination reaction in 96-well plates, allow eIF5A to adsorb to the plate, incubate with an anti-hypusine antibody and a secondary antibody conjugated to HRP and reveal hypusination using TMB as a substrate.
[…] Then 10 μL containing 1 μg of DOHH with 10 μM Fe^2+ (H8FeN2O8S2^. 6H2O) were added. After 1 h proteins were analyzed by Western Blot using antibodies toward DHPS, DOHH, Hypusine, and eIF5A.
The cell-free reaction described in 4.4 is performed in triplicates in a 96-wells plate (MaxiSorp, ThermoFisher) in the presence of 3 μg of eIF5A, 2 μg of DHPS, and 2 μg of DOHH by well. The reaction product, hypusinated eIF5A, is adsorbed onto the plate overnight at 4°C. The plate is washed (100 μL/well) thrice with PBS-T (PBS– 0.05% Tween20), then saturated with 1% non-fat dry milk in PBS-T for 2 h at room temperature. The plate is washed thrice with PBS-T and incubated overnight at 4°C with the anti-hypusine antibody (1:2000 in saturation buffer, 50 μL/well). The next day and after 5 washes with PBS-T, HRP-coupled anti-rabbit secondary antibody diluted 1:5000 in saturation buffer (50 μL/well) is added for 2 h at room temperature.

[3] = test system: eIF5A hypusination in MCF7 cells; assay: eIF5A hypusination in intact MCF7 cells, Western blot; assay type: cell-based, human; settings: 40 μM, 24 h, Ctrl 100, 4 experiments
Method: We tested the ability of the GC7 analogs to inhibit hypusination in intact cells. MCF-7 cells (Fig 5B), a classical model of breast cancer cell line, and HT29 cells (Fig 5C), a cell model of colorectal cancer, were treated with 40 μM of GC7, 1, 2, 3, and 4 for 24h. Cells were lysed and analyzed by Western blot. As observed, none of the molecules modified eIF5A expression. […] GC7 analogs inhibited hypusination from 35 to 55%.
The human breast cancer cell line MCF7 (HTB-22 ATCC) and colorectal adenocarcinoma HT29 (HTB-38 ATCC) were cultured in DMEM (Gibco) supplemented with 10% FBS (Dutscher), 10 U/mL penicillin, and […] streptomycin. 1 mM of aminoguanidine was added to the medium to inhibit the degradation of GC7 and polyamines by amine oxidase from the serum and the production of reactive oxygen species. Cells were maintained at 37°C, 5% CO2 in a humid atmosphere.
After treatment, cells were washed with ice-cold PBS and lysed in RIPA Buffer (50 mM Tris pH 7.5, 150 mM NaCl, 0.1% SDS, 0.5% Na Deoxycholate, 5 mM NaF, 2.5 mM Na4P2O7, 1% NP4O) containing a protease inhibitor cocktail (complete Roche). 10 μg of proteins were separated by SDS PAGE and transferred to a PVDF membrane (Immobilon-P Millipore). The membranes were probed with the appropriate primary antibody that was detected by horseradish peroxidase-conjugated secondary antibody (Jackson Immunoresearch) and visualized by chemiluminescence (ECL Amersham RPN 3244) using a Fuji LAS-4000 imager. ImageJ® software was used to quantify band intensity and the ratios of proteins of interest were normalized to a loading control. Full-length Western blots are provided in the supplementary data (S19, S20 Figs).

[4] = concentration 1 (no unit on page; Fig 5A 0 to 1 mM)
[5] = concentration 10 (no unit on page; Fig 5A 0 to 1 mM)
[6] = concentration 100 (no unit on page; Fig 5A 0 to 1 mM)
[7] = concentration 1000 (no unit on page; Fig 5A 0 to 1 mM)

| Compound | IC50 (DHPS [1]) [nM] | concentration from which inhibition of hypusination was detectable (DHPS [2]) [µM] | hypusination signal, Mean (quantification from Figure 5A) (DHPS [2]; [4]) | hypusination signal, Mean (quantification from Figure 5A) (DHPS [2]; [5]) | hypusination signal, Mean (quantification from Figure 5A) (DHPS [2]; [6]) | hypusination signal, Mean (quantification from Figure 5A) (DHPS [2]; [7]) | hypusinated eIF5A, Western blot quantification, Mean (Figure 5B) [3] |
| --- | --- | --- | --- | --- | --- | --- | --- |
| COc1ccccc1Oc1c(Cl)nc(-c2ccc(I)cc2)nc1Cl [GL-1, 4,6-dichloro-2-(4-iodophenyl)-5-(2-methoxyphenoxy)pyrimidine] | 210 | – | – | – | – | – | – |
| N=C(N)NCCCCCCCO [compound 3, 7-hydroxyheptylguanidine] | – | 1 | 75,7 | 65,6 | 63,6 | 58,2 | 50.5 |
| N=C(N)NCCCCCCCCO [compound 4, 8-hydroxyoctylguanidine] | – | 100 | 109,4 | 86,9 | 67,2 | 64,0 | 64.75 |
